Assay results published in patent US20240182454A1, “Polycyclic Compound for Inhibiting RNA Helicase DHX33, and Application of Compound” (Shenzhen KeYe Life Technologies, Co., Ltd, priority 2021, published 2024).

Each compound was assayed against T1, DHX33 protein (Mus musculus, UniProt Q80VY9) (assay: Inhibition of the helicase activity of DHX33 protein in vitro). Settings: recombinant DHX33 protein, compound 1-1000 nM, 37° C. 60 minutes; read-out: IC50, inhibitory effects of the compounds on the helicase activity of DHX33 protein.
T1 construct: 0.25 μg of purified full-length DHX33 protein; made in house; host or cells: E. coli BL-21pLysS (DE3)
T1 sequence (Q80VY9 1-698): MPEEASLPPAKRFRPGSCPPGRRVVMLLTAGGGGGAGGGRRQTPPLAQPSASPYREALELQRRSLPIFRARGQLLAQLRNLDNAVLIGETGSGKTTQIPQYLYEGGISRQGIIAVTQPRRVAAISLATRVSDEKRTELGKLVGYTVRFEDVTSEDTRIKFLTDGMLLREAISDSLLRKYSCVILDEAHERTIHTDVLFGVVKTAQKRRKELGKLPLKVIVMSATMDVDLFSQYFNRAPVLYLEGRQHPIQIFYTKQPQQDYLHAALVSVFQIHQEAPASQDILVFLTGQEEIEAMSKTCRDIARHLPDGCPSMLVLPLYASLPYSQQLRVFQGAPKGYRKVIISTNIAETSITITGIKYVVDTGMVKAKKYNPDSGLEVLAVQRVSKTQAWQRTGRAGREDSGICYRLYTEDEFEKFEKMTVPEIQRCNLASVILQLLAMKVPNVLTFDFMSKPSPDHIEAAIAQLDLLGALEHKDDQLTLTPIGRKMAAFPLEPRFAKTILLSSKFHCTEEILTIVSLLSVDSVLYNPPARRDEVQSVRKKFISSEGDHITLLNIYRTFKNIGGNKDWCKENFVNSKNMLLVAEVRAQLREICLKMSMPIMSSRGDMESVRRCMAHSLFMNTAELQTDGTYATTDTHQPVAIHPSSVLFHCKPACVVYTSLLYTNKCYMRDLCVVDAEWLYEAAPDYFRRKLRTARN
Assay type: biochemical
Method: Biochemistry. 2019;58 (4):250-8. RNA helicase gene (mouse DHX33 gene) was cloned into a pET32M-3C vector (between BamH I/Not I restriction sites). Afterward, the plasmid was transformed into BL-21pLysS (DE3) E. coli. 0.5 mM isopropyl 1-thio-P-D-galactopyranoside (IPTG) was added, and the expression of the recombinant protein was induced at 16° C. for 16 hours. Cells were allowed to precipitate and were resuspended in a cell lysis buffer [50 mM Tris-HCl (pH7.2), 150 mM NaCl, 1% Triton X-100, and 50 mM imidazole supplemented with a protease inhibitor]. Thereafter, cells were subjected to ultrasonic treatment and centrifuged at a rotation speed of 13000 rpm for 25 minutes. The supernatant was incubated with the nickel-nitrilotriacetic acid beads equilibrated in Tris buffer, followed by sufficient washing. Thereafter, the purified protein was eluted with a solution of 300 mM imidazole in Tris buffer, and was then subjected to dialysis against an imidazole-free Tris buffer at 4° C. overnight.
The components involved in the reaction for testing the helicase activity were added to a 96-well opaque white plate. The method was outlined as follows. The 96-well plate was coated with neutravidin at a final concentration of 10 μg/mL (100 μL/well) overnight at 4° C. Afterwards, the neutravidin-coated plate was blocked with 100 μL of 0.1% (w/v) BSA (dissolved in normal PBS) at 22° C. for 2 hours. After washing, a DNA duplex (2.5 ng) that was resulted from the annealing of two single-stranded DNA oligonucleotides (the sequence of one single strand was biotin-labeled 5′-[…]-3; and the sequence of the other single strand was DIG-labeled 5′-[…]-3′) [the annealing reaction was carried out in PBS (pH 7.0) containing 1M NaCl] was added, and the resulting mixture was incubated at 22° C. for 4 hours. After the addition of 90 μL of the reaction mixture, the helicase reaction was initiated [0.25 μg of purified full-length DHX33 protein, dissolved in 25 mM 4-MOPS (pH 7.0), 5 mM ATP, 2 mM DTT, 3 mM MnCl2 and 100 μg/mL BSA]. The reaction was conducted at 37° C. for 60 minutes. After being washed, each well was incubated with a blocking solution [10% (w/v) BSA in 0.1 M maleic acid and 0.15 M NaCl (pH 7.5)] for 30 minutes, and was then incubated with 20 μL of antibody solution (anti-DIG-AP, Roche, in blocking buffer) for 30 minutes. After being washed with 100 μL of detection buffer [0.1 M Tris-HCl and 0.1 M NaCl (pH 9.5)], each well was added with 1 μL of chemiluminescent substrate (CSPD-0.25 mM), and the plate was incubated at 17° C. for 5 minutes. […] The remaining DIG-AP marker control in each well was counted for 10 minutes by a luminescence multi-well plate reader (Enspire, PerkinElmer). Higher reading indicated weaker helicase activity. […]
An IC50 of 20 to 100 nM was found for `Cc1cc(C#N)c(-n2c(C)cc(C(=O)Nc3nc4ccc(F)cc4[nH]3)c2C)s1` [AB29556] in this work.
An IC50 of under 20 nM was found for `COc1cc2[nH]c(NC(=O)c3cc(C)n(-c4sc(C)cc4C#N)c3C)nc2cn1` [AB29558] in this work.
An IC50 of at least 400 nM was found for `COc1cccc2nc(NC(=O)c3cc(C)n(-c4sc(C)cc4C#N)c3C)[nH]c12` [AB29559] in this work.
An IC50 of at least 400 nM was found for `Cc1oc(-n2c(C)cc(/C=C(\C#N)c3nc4ccccc4[nH]3)c2C)c(C#N)c1C` [Compound as control, reference compound] in this work.

The compounds below were run on U251-MG cells (assay: Half-maximal cell-inhibitory concentration on U251-MG cells (CCK-8)). Settings: Homo sapiens, U-251, U251-MG cells (DHX33-overexpressing), 48 hours incubation, read-out: IC50, half-maximal inhibitory concentrations of compounds on U251-MG cell.
Assay type: cell-based
Method: U251-MG cells were purchased from the cell bank of the Chinese Academy of Sciences. Cells were cultured in MEM medium containing 10% fetal bovine serum (FBS), 2 mM L-glutamine, streptomycin and penicillin. The growth conditions were set as follows: a humidified cell incubator (37° C., 5% CO2). Cells were passaged every 3 days and were discarded after 10 passages.
U251-MG cells (a DHX33-overexpressing cancer cell strain) were seeded on a 96-well plate at 1×10^4 cells/100 μl/well. After the cells were completely attached, the compounds were added to the cell culture medium at a concentration of 5 nM, 10 nM, 25 nM, 50 nM, 100 nM, 250 nM, 500 nM, 1000 nM, 2000 nM, 5000 nM, 10 μM or 20 μM, and the resulting mixture was uniformly mixed with a multichannel pipette. After the cells were incubated with the compound for 48 hours, CCK-8 reagent (Yeasen Biotechnology (Shanghai) Co., Ltd.) was added to the medium in the 96-well plate in accordance with the standard procedure. After being incubated for 2 hours, the plate was read with a microplate reader (OD=450 nm). The experiment was repeated three times, the inhibiton curve of the compound at different concentrations was plotted, and the half-maximal inhibitory concentration (IC50) of the compound was calculated.
An IC50 of 1000 to 5000 nM was found for `Cc1cc(C#N)c(-n2c(C)cc(C(=O)Nc3nc4ccc(OC(F)(F)F)cc4[nH]3)c2C)s1` [AB29572] in this work.
An IC50 of 100 to 1000 nM was found for `COc1cc2cc(NC(=O)c3cc(C)n(-c4sc(C)cc4C#N)c3C)[nH]c2cn1` [AB29573] in this work.
An IC50 of 100 to 1000 nM was found for `COc1ccc2nc(C(=O)Nc3cc(C)n(-c4sc(C)cc4C#N)c3C)[nH]c2c1` [AB29540] in this work.
An IC50 of 100 to 1000 nM was found for `COCn1c(NC(=O)c2cc(C)n(-c3sc(C)cc3C#N)c2C)nc2ccc(OC)cc21` [AB29562] in this work.
An IC50 of under 100 nM was found for `COc1cnc2nc(NC(=O)c3cc(C)n(-c4sc(C)cc4C#N)c3C)[nH]c2c1` [AB29566] in this work.
An IC50 of 100 to 1000 nM was found for `Cc1cc(C#N)c(-n2c(C)cc(C(=O)Nc3nc4ccc(F)cc4[nH]3)c2C)s1` [AB29556] in this work.
An IC50 of under 100 nM was found for `COc1cc2[nH]c(NC(=O)c3cc(C)n(-c4sc(C)cc4C#N)c3C)nc2cn1` [AB29558] in this work.
An IC50 of 100 to 1000 nM was found for `COCn1c(NC(=O)c2cc(C)n(-c3sc(C)cc3C#N)c2C)nc2cc(OC)ccc21` [AB29563] in this work.
An IC50 of 100 to 1000 nM was found for `COc1ccc2nc(NC(=O)c3cc(C)n(-c4oc(C)nc4C#N)c3C)[nH]c2c1` [AB29522] in this work.
An IC50 of 1000 to 5000 nM was found for `COc1ccc2c(c1)nc(NC(=O)c1cc(C)n(-c3sc(C)cc3C#N)c1C)n2COC(=O)C(C)(C)C` [AB29565] in this work.
An IC50 of 1000 to 5000 nM was found for `COc1cccc2nc(NC(=O)c3cc(C)n(-c4sc(C)cc4C#N)c3C)[nH]c12` [AB29559] in this work.
An IC50 of 1000 to 5000 nM was found for `Cc1cc(C#N)c(-n2c(C)cc(C(=O)Nc3nc4cccnc4[nH]3)c2C)s1` [AB29554] in this work.
An IC50 of 100 to 1000 nM was found for `COc1ccc2nc(NC(=O)c3cc(C)n(-c4sc(C)cc4C#N)c3C)n(C)c2c1` [AB29561] in this work.
An IC50 of 100 to 1000 nM was found for `COc1ccc2nc(N(C)C(=O)c3cc(C)n(-c4sc(C)cc4C#N)c3C)[nH]c2c1` [AB29560] in this work.
An IC50 of 100 to 1000 nM was found for `Cc1cc(C#N)c(-n2c(C)cc(C(=O)Nc3nc4ccc(Cl)cc4[nH]3)c2C)s1` [AB29557] in this work.
An IC50 of 100 to 1000 nM was found for `Cc1cc(C#N)c(-n2c(C)cc(C(=O)Nc3nc4ccccc4[nH]3)c2C)s1` [AB29553] in this work.
An IC50 of 1000 to 5000 nM was found for `COc1ccc2nc(NC(=O)c3cc(C)n(-c4sc(C)cc4C#N)c3C)n(COC(=O)C(C)(C)C)c2c1` [AB29564] in this work.
An IC50 of 1000 to 5000 nM was found for `COc1ccc2nc(NC(=O)c3cc(C)n(Cc4cccs4)c3C)[nH]c2c1` [AB29552] in this work.
An IC50 of 1000 to 5000 nM was found for `Cc1cc(C#N)c(-n2c(C)cc(C(=O)Nc3nc4ccncc4[nH]3)c2C)s1` [AB29555] in this work.
